Measured values from ChEMBL document CHEMBL5512655, “Discovery of indolylacryloyl-derived oxacins as novel potential broad-spectrum antibacterial candidates” (Eur J Med Chem, 2024).
The source made the active and inactive calls.

Key:
[1] = Cytotoxicity against HUVEC cells assessed as cell viability at 64 ug/ml measured after 24 hrs relative to control; format: toxicity, cell-based; conditions: human, at 64 µg/mL, read-out: Activity
[2] = Hemolytic activity in human red blood cells assessed as hemolysis rate at 512 ug/ml relative to control; format: toxicity, cell-based, Erythrocyte; conditions: red blood cells (erythrocytes), at 512 µg/mL, read-out: Activity
Escherichia coli [3] = experiment: Potency index, ratio of norfloxacin MIC to test compound MIC for antibacterial activity against Escherichia coli assessed as inhibition of bacterial growth measured after 24 hrs incubation; format: functional
Escherichia coli [4] = experiment: Antibacterial activity against Escherichia coli assessed as resistance development measured after 18 generations; format: functional, organism-based
Acinetobacter baumannii [5] = experiment: Potency index, ratio of norfloxacin MIC to test compound MIC for Antibacterial activity against Acinetobacter baumannii assessed as inhibition of bacterial growth measured after 24 hrs incubation; format: functional
Staphylococcus aureus [6] = experiment: Antibacterial activity against methicillin-resistant Staphylococcus aureus N315 assessed as inhibition of bacterial growth measured after 24 hrs incubation; format: functional
Enterococcus faecalis [7] = experiment: Antibacterial activity against Enterococcus faecalis assessed as inhibition of bacterial growth measured after 24 hrs incubation; format: functional
Staphylococcus aureus [8] = experiment: Anti-biofilm effect in methicillin-resistant Staphylococcus aureus N315 assessed as biofilm destruction by measuring reduced biofilm content at MIC; format: functional
Staphylococcus aureus [9] = experiment: Antibacterial activity against methicillin-resistant Staphylococcus aureus N315 assessed as reduction in bacterial burden at 2 to 4 times of MIC measured upto 7 hrs by time-dependent kinetics assay; format: functional, organism-based
[10] = Cytotoxicity against human L02 cells assessed as cell viability at 16 ug/ml measured after 24 hrs relative to control; format: toxicity, cell-based; conditions: at 16 µg/mL, read-out: Activity
Escherichia coli [11] = experiment: Induction of lipid peroxidation in Escherichia coli assessed as malondialdehyde (MDA) level production at 4 time of MIC; format: functional, organism-based
Acinetobacter baumannii [12] = experiment: Antibacterial activity against Acinetobacter baumannii assessed as inhibition of bacterial growth measured after 24 hrs incubation; format: functional
Escherichia coli [13] = experiment: Antibacterial activity against Escherichia coli assessed as inhibition of bacterial growth measured after 24 hrs incubation; format: functional
Escherichia coli [14] = experiment: Reduction in metabolic activity in Escherichia coli by Alamar Blue assay; format: functional, organism-based
Calf thymus DNA [15] = experiment: Binding affinity to calf thymus DNA by acridine orange staining based competitive binding assay; format: nucleic-acid assay; conditions: Bos taurus
Pseudomonas aeruginosa [16] = experiment: Antibacterial activity against Pseudomonas aeruginosa assessed as inhibition of bacterial growth measured after 24 hrs incubation; format: functional
Escherichia coli [17] = experiment: Antibacterial activity against Escherichia coli assessed as reduction in bacterial burden at 2 to 4 times of MIC measured within 5 hrs by time-dependent kinetics assay; format: functional, organism-based
Cell membrane [18] = experiment: Induction of cytoplasmic membrane integrity loss in methicillin-resistant Staphylococcus aureus N315 assessed as increase in fluorescence intensity at 0.5 to 6 times of MIC by Propidium iodide method; format: cell membranes
Calf thymus DNA [19] = experiment: Binding affinity to calf thymus DNA assessed as DNA intercalation with drug by […] assay; format: nucleic-acid assay; conditions: Bos taurus
Staphylococcus aureus [20] = experiment: Induction of ROS production in methicillin-resistant Staphylococcus aureus N315 assessed as fluorescence intensity at 2 times of MIC by DCFH-DA (dichlorofluorescin diacetate) probe based assay
Staphylococcus aureus [21] = experiment: Antibacterial activity against Staphylococcus aureus ATCC 29213 assessed as inhibition of bacterial growth measured after 24 hrs incubation; format: functional
Staphylococcus aureus [22] = experiment: Potency index, ratio of norfloxacin MIC to test compound MIC for antibacterial activity against Staphylococcus aureus assessed as inhibition of bacterial growth measured after 24 hrs incubation; format: functional
Staphylococcus aureus [23] = experiment: Induction of lipid peroxidation in methicillin-resistant Staphylococcus aureus N315 assessed as malondialdehyde (MDA) level production; format: functional, organism-based
Klebsiella pneumoniae [24] = experiment: Potency index, ratio of norfloxacin MIC to test compound MIC for antibacterial activity against Klebsiella pneumonia assessed as inhibition of bacterial growth measured after 24 hrs incubation; format: functional
Staphylococcus aureus [25] = experiment: Potency index, ratio of norfloxacin MIC to test compound MIC for antibacterial activity against Staphylococcus aureus ATCC 29213 assessed as inhibition of bacterial growth measured after 24 hrs incubation; format: functional
Enterococcus faecalis [26] = experiment: Potency index, ratio of norfloxacin MIC to test compound MIC for antibacterial activity against Enterococcus faecalis assessed as inhibition of bacterial growth measured after 24 hrs incubation; format: functional
Pseudomonas aeruginosa [27] = experiment: Potency index, ratio of norfloxacin MIC to test compound MIC for antibacterial activity against Pseudomonas aeruginosa ATCC 27853 assessed as inhibition of bacterial growth measured after 24 hrs incubation; format: functional
Escherichia coli [28] = experiment: Reduction in metabolic activity in Escherichia coli at 6 times of MIC by Alamar Blue assay relative to control; format: functional; design: scale not given: the % may be the effect or the level left
Staphylococcus aureus [29] = experiment: Reduction in metabolic activity in methicillin-resistant Staphylococcus aureus N315 by Alamar Blue assay; format: functional, organism-based
Staphylococcus aureus [30] = experiment: Potency index, ratio of norfloxacin MIC to test compound MIC for antibacterial activity against Staphylococcus aureus ATCC 25923 assessed as inhibition of bacterial growth measured after 24 hrs incubation; format: functional
Escherichia coli [31] = experiment: Antibacterial activity against Escherichia coli assessed as reduction in bacterial burden at 2 to 4 times of MIC measured upto 7 hrs by time-dependent kinetics assay; format: functional, organism-based
Staphylococcus aureus [32] = experiment: Antibacterial activity against Staphylococcus aureus ATCC 25923 assessed as inhibition of bacterial growth measured after 24 hrs incubation; format: functional
Escherichia coli [33] = experiment: Anti-biofilm effect in Escherichia coli assessed as inhibition of biofilm formation by measuring reduction in exo-polysaccharide content at 6 times of MIC relative to control; format: functional
Escherichia coli [34] = experiment: Potency index, ratio of norfloxacin MIC to test compound MIC for antibacterial activity against Escherichia coli ATCC 25922 assessed as inhibition of bacterial growth measured after 24 hrs incubation; format: functional
Klebsiella pneumoniae [35] = experiment: Antibacterial activity against Klebsiella pneumonia assessed as inhibition of bacterial growth measured after 24 hrs incubation; format: functional
Cell membrane [36] = experiment: Induction of cell membrane damage in methicillin-resistant Staphylococcus aureus N315 assessed as increase in density of red fluorescence at 4 times of MIC by Calcein-AM/PI dual staining based fluorescence microscopy; format: cell membranes
Staphylococcus aureus [37] = experiment: Antibacterial activity against methicillin-resistant Staphylococcus aureus N315 assessed as resistance development measured after 10 generations; format: functional, organism-based
Escherichia coli [38] = experiment: Antibacterial activity against Escherichia coli assessed as resistance development measured after 11 generations; format: functional, organism-based
Pseudomonas aeruginosa [39] = experiment: Potency index, ratio of norfloxacin MIC to test compound MIC for antibacterial activity against Pseudomonas aeruginosa assessed as inhibition of bacterial growth measured after 24 hrs incubation; format: functional
Escherichia coli [40] = experiment: Anti-biofilm effect in Escherichia coli assessed as biofilm destruction rate at 6 times of MIC; format: functional
Escherichia coli [41] = experiment: Antibacterial activity against Escherichia coli assessed as resistance development by measuring compound concentration required to inhibit measured after 18 generations; format: functional
Staphylococcus aureus [42] = experiment: Anti-biofilm effect in methicillin-resistant Staphylococcus aureus N315 assessed as biofilm destruction rate at 6 times of MIC; format: functional
Staphylococcus aureus [43] = experiment: Antibacterial activity against methicillin-resistant Staphylococcus aureus N315 assessed as reduction in bacterial burden at 2 to 4 times of MIC measured within 5 hrs by time-dependent kinetics assay; format: functional, organism-based
Escherichia coli [44] = experiment: Induction of lipid peroxidation in Escherichia coli assessed as malondialdehyde (MDA) level production; format: functional, organism-based

CCOC(=O)Cn1cc(/C=C(\C#N)C(=O)N2CCN(c3cc4c(cc3F)c(=O)c(C(=O)O)cn4CC)CC2)c2ccccc21
80%: viability at 24 h, 16 ug/ml [10]
0.5 µg/mL: MIC (Pseudomonas aeruginosa [16]) | MIC (Klebsiella pneumoniae [35])
< 5%: hemolysis at 512 ug/ml [2]
1: Ratio (Escherichia coli [3]) | Ratio (Acinetobacter baumannii [5]) | Ratio (Staphylococcus aureus [22]) | Ratio (Klebsiella pneumoniae [24]) | Ratio (Staphylococcus aureus [25]) | Ratio (Enterococcus faecalis [26]) | Ratio (Pseudomonas aeruginosa [27]) | Ratio (Staphylococcus aureus [30]) | Ratio (Escherichia coli [34]) | Ratio (Pseudomonas aeruginosa [39])
active: Activity (Escherichia coli [4]) | Activity (Staphylococcus aureus [9]) | Activity (Escherichia coli [11]) | Activity (Escherichia coli [14]) Dose-Dependent Effect | Activity (Calf thymus DNA [15]) | Activity (Escherichia coli [17]) | Activity (Cell membrane [18]) | Activity (Calf thymus DNA [19]) | Activity (Staphylococcus aureus [23]) Dose-Dependent Effect | Activity (Staphylococcus aureus [29]) Dose-Dependent Effect | Activity (Escherichia coli [31]) | Activity (Cell membrane [36]) | Activity (Staphylococcus aureus [43]) | Activity (Escherichia coli [44]) Dose-Dependent Effect
0.25 µg/mL: MIC (Staphylococcus aureus [6]) | MIC (Enterococcus faecalis [7]) | MIC (Acinetobacter baumannii [12]) | MIC (Escherichia coli [13]) | MIC (Staphylococcus aureus [21]) | MIC (Staphylococcus aureus [32])
inactive: Activity (Staphylococcus aureus [37]) | Activity (Escherichia coli [38])
<50%: inhibition (INH) (Escherichia coli [33])
>50%: Activity (Staphylococcus aureus [20]) | Activity (Escherichia coli [28])
>60%: inhibition (INH) (Escherichia coli [40]) | inhibition (INH) (Staphylococcus aureus [42])
68.8%: inhibition (INH) (Staphylococcus aureus [8])
85%: viability at 24 h, 64 ug/ml [1]
32 µg/mL: MIC (Escherichia coli [41])
